The values below come from ChEMBL document CHEMBL1201862, “PubChem BioAssay data set” (2004).

Assay [1] has as its target T1, Ubiquitin-conjugating enzyme E2 N (Homo sapiens, UniProt P61088).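 Note: Dose-response confirmation in a TR-FRET assay detecting UBC13-driven polyubiquitin chain formation, inhibition measured.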
T1 sequence (P61088 whole entry): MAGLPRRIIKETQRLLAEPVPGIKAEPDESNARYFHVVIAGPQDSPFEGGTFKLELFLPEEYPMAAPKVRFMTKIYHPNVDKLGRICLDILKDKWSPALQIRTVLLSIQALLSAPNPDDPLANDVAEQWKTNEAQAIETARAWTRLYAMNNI
It is filed as functional.

Assay [2] is described as follows: HEK-293T cell viability reduction – luminescence, B-cell screen hits, cytotoxicity control for BCR NF-kB inhibitor project, dose response (AID 489021).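 Note: HEK-293T cells carrying an NF-kB luciferase reporter; cells exposed to compound for about 14 hours before viability readout.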 It is filed as functional, cell-based.
In assay [3] the test system is HEK293. Put plainly: cells. Particulars: Homo sapiens. It is filed as functional, cell-based.
Assay [4] concerns HEK293. Put plainly: cells. It is filed as functional, cell-based. Particulars: Homo sapiens. The source holds these as a separate data set.
In assay [5] the target is Nucleotide-binding oligomerization domain-containing protein 2 (Homo sapiens, UniProt Q9HC29). Put plainly: inhibition of NOD2-driven NF-kB reporter – cell-based, luminescence, uHTS, HEK293 (AID 1566). It is filed as functional.
For assay [6], the system named is HEK293. Put plainly: inhibition of NOD1-driven NF-kB reporter – cell-based, luminescence, uHTS, primary screen (AID 1578). In kind it is functional. Particulars: Homo sapiens.
The test system of assay [7] is HEK293. As to the kind of experiment: NOD2 signaling inhibitors in MDP-stimulated cells, cell-based, uHTS, luminescence (AID 2001). It is filed as functional. The conditions noted are these: Homo sapiens.
Assay [8] addresses T2, Leucine aminopeptidase (Plasmodium falciparum 3D7, UniProt Q8IL11).
T2 sequence (Q8IL11 whole entry): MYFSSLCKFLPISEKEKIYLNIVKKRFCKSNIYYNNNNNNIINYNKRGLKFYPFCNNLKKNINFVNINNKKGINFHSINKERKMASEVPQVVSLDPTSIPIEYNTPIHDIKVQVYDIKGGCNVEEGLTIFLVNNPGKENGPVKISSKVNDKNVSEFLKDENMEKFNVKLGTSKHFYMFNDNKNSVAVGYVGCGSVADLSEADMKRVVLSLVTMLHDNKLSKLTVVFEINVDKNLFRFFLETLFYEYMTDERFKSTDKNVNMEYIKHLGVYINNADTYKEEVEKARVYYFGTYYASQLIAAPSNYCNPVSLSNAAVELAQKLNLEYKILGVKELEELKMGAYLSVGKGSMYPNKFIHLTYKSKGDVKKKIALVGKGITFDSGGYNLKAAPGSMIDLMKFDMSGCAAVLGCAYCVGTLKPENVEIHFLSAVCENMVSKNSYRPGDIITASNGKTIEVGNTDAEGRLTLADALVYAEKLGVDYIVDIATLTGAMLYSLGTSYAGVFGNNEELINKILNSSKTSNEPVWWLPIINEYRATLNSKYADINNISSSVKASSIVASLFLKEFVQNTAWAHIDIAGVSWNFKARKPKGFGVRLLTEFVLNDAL
As to the kind of experiment: P. falciparum M17LAP inhibitors, primary screen, biochemical, fluorogenic H-Leu-NHMec substrate, 1536-well (AID 1619). In kind it is functional.

Assay [9] has as its target T3, Protein RecA (Mycobacterium tuberculosis, UniProt P9WHJ3).
T3 sequence (P9WHJ3 whole entry): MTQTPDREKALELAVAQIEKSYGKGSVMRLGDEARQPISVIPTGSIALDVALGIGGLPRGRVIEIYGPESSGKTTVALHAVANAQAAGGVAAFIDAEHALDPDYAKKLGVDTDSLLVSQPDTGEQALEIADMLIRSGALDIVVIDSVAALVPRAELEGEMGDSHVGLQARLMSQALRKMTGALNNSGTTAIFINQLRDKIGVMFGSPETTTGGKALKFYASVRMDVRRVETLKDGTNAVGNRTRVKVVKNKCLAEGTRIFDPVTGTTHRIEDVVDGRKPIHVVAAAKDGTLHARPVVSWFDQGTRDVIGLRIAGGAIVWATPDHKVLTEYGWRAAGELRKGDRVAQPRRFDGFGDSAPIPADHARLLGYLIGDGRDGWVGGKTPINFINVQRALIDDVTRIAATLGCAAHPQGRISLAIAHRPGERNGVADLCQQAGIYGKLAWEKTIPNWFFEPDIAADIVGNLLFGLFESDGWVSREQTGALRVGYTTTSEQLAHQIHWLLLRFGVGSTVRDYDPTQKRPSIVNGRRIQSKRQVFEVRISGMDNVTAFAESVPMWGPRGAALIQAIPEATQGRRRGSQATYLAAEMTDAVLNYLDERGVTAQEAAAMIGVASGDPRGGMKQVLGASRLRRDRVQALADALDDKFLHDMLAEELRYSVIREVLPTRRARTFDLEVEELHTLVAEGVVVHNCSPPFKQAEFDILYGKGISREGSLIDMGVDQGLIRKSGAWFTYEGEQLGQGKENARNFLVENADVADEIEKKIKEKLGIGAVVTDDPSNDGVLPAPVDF
As to the kind of experiment: Fluorescence Cell-Free Homogeneous Dose Retest to Identify Inhibitors of RecA-Intein Splicing Activity. [Related pubchem assays (depositor defined):AID2097, AID2223, AID489010, AID492950]. In kind it is functional.

Assay [10] has as its target T4, Replicative DNA helicase DnaB (Mycobacterium tuberculosis, UniProt P9WMR3).
T4 sequence (P9WMR3 whole entry): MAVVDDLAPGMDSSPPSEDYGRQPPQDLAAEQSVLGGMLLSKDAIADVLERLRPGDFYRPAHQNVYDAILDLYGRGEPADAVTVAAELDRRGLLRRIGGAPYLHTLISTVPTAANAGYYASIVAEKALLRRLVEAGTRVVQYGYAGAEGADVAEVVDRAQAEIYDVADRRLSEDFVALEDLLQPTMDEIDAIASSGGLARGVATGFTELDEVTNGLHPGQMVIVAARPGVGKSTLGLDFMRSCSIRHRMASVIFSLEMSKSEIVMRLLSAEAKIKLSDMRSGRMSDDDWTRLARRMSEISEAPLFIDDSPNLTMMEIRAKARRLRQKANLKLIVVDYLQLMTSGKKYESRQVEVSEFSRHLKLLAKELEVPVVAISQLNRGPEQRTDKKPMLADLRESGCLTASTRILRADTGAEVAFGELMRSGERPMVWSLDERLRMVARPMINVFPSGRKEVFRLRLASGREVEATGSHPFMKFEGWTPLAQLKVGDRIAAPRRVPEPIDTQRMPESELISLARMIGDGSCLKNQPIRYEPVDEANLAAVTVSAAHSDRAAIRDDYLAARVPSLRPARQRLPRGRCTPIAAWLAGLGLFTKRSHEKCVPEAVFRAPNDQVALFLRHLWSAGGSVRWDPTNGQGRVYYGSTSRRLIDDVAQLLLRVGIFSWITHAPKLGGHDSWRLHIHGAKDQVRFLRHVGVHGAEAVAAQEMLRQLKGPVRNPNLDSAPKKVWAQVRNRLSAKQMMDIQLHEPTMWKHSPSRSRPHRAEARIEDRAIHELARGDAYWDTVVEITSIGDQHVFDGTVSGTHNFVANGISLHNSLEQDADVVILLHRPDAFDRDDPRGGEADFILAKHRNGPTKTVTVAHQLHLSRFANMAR
Put plainly: DnaB intein splicing inhibitors, dose response, biochemical, cell-free fluorescence (AID 449749). It is filed as functional.

The nature of assay [11]: HIV-1 Vif–A3G interaction blockers – biochemical, TR-FRET, GST-Vif 1-94, biotin-A3G peptide, dose response retest, primary screen (AID 1117319).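 Note: TR-FRET signal of purified GST-Vif binding a biotinylated A3G peptide; inhibitors lower the FRET signal by blocking Vif and A3G binding.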 In kind it is functional.
A short description of assay [12]: toxicity toward HepG2 liver cells – cell-based, plate reader, cherry-pick, antagonist series, cytotoxicity control, dose response (AID 743416). In kind it is functional.
Assay [13] in a line: blockade of melanocortin 4 receptor signaling – cell-based, plate reader, cherry pick, counter-screen for LGR2 antagonist project, dose response (AID 743444).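 Note: transfected HEK 293 cells stimulated with alpha-MSH peptide; potency of inhibitors of the alpha-MSH evoked signal.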 In kind it is functional.
Assay [14] in a line: A549 cell cytotoxicity, dose response, cytotoxicity control, plate reader, cherry-pick, antagonist series (AID 743412). In kind it is functional, cell-based.
The nature of assay [15]: viability loss in HEK293 cells – cell-based, plate reader, cherry-picked samples, cytotoxicity control, dose response (AID 743446). In kind it is functional.
Assay [16] can be described thus: viability loss in Vero cells – cytotoxicity control for Vif-APOBEC3G degradation inhibitor project, dose response (AID 1117358). It is filed as functional. The conditions noted are these: Vero.
Assay [17] is described as follows: blockers of bursicon-stimulated LGR2 cAMP reporter – cell-based, HEK293, CRE-luciferase reporter, cherry pick, set 2, dose response (AID 743343).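 Note: transfected cells were stimulated with diluted bursicon conditioned medium after compound addition.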 It is filed as functional.
Assay [18] concerns the target T5, Microphthalmia-associated transcription factor (Homo sapiens, UniProt O75030).
T5 sequence (O75030 whole entry): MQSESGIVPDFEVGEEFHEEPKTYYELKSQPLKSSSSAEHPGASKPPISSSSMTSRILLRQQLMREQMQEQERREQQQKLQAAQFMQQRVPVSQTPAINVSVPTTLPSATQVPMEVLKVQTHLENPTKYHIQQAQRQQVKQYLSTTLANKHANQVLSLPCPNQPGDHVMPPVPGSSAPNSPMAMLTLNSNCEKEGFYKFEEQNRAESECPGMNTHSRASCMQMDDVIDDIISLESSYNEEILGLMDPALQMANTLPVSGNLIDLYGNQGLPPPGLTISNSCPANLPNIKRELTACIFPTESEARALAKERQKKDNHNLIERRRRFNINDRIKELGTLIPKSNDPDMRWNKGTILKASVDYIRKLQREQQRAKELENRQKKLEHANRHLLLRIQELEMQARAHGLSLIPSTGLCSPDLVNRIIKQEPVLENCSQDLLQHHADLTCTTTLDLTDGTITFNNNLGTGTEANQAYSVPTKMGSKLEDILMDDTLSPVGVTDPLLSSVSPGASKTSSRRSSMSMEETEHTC
As to the kind of experiment: reducers of TRPM1 reporter luminescence, concentration series – cell-based, SK-MEL-5, cherry-picked, set 3, MITF inhibitor project, dose response (AID 493073).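 Note: SK-MEL-5 melanoma cells with luciferase driven by the MITF target TRPM1 promoter.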 In kind it is functional.

The target in assay [19] is Cytochrome P450 3A4 (Homo sapiens, UniProt P08684). Particulars: Potency.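 Note: confirmatory qHTS run detecting inhibitors and substrates of CYP3A4.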

The source made the active and inactive calls. Some results are limits rather than exact numbers.

Sequence of Nucleotide-binding oligomerization domain-containing protein 2 (Q9HC29 whole entry, the tested form may be a part): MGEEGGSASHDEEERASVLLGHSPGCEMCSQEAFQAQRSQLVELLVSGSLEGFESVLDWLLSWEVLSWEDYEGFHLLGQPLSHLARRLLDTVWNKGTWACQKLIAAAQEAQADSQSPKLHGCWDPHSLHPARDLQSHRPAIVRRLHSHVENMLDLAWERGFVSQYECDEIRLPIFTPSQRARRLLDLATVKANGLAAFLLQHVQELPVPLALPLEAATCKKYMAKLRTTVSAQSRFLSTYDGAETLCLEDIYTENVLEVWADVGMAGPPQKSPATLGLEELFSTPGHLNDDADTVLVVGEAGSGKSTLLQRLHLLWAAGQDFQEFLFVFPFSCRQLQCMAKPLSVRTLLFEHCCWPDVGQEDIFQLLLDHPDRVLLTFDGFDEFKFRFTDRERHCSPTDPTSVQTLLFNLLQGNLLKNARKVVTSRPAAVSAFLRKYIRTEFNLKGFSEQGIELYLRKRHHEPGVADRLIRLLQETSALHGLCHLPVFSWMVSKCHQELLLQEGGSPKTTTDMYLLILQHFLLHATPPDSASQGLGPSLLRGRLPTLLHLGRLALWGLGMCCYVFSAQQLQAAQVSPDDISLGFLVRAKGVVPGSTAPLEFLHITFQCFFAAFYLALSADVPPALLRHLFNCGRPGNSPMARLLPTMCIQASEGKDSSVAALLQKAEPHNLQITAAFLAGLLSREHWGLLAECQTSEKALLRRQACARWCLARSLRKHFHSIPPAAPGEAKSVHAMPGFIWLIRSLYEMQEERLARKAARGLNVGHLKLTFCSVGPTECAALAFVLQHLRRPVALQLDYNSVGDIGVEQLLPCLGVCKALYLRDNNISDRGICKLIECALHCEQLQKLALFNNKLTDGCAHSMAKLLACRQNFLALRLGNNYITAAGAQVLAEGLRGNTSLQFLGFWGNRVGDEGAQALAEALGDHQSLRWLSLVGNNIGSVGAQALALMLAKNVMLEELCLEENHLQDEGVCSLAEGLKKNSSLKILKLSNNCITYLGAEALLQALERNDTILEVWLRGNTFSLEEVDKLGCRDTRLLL
Sequence of Cytochrome P450 3A4 (P08684 whole entry): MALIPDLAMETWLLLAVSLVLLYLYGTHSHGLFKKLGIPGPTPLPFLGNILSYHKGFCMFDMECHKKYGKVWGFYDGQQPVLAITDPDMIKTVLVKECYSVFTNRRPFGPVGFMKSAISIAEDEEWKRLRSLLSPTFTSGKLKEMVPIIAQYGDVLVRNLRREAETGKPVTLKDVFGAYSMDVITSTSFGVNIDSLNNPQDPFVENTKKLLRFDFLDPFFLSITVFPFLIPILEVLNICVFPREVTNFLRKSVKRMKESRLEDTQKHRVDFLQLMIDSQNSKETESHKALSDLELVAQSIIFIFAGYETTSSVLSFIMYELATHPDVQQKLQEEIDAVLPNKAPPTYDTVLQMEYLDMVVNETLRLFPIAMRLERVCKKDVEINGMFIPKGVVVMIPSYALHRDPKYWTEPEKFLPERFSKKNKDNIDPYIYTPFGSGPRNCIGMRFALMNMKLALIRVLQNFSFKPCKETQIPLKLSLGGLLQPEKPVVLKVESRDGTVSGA

On to `COc1ccnc2c1c(=O)n(Cc1ccc(F)cc1)c(=O)n2C`, for which, in assay [1], the IC50 is > 20 µM (inactive).
In the case of `CCc1cccc(NC(=O)c2ccc(CNc3c(N4CCCC4)c(=O)c3=O)cc2)c1`, in assay [2], the IC50 was > 80 µM (inactive).
`Cc1ccc(NC(=O)c2cc(=O)c3ccccc3o2)cc1S(=O)(=O)N1CCCCC1`: the IC50 in assay [3] is > 20 µM (inactive); in [4], > 20 µM (inactive); in [7], 9.78 µM (active). Also, the EC50 in [5] was > 20 µM (inactive); in assay [6], 8.74 µM (active).
As to `Cc1cc(-c2[nH]nc3c2C(c2cccc(O)c2)C(C#N)=C(N)O3)c(C)s1` (stereo not drawn), the IC50 in assay [8] was 52.8 µM (active); in assay [11] it was > 100 µM (active). Further, the EC50 in assay [9] was 2.65 µM (active). For the same compound, the AC50 in assay [10] is 4.58 µM (active).
For the compound `COc1cc(C(=O)Oc2cccc(Nc3ncnc4ccccc34)c2)cc(OC)c1OC`, the AC50 was > 52 µM (inactive) in [12]; 17.7 µM (active) in assay [13]; 51.4 µM (active) in [14]; > 52 µM (inactive) in assay [15]; 14.1 µM (active) in [17]. Further, the IC50 in assay [11] is > 100 µM (active). Further, in [16], the CC50 was 35.2 µM (active).
For `CC(C)c1ccc(/C=C2\SC(=S)N(CCC(=O)N3CCCCC3CCO)C2=O)cc1` (stereo not drawn), the AC50 in [18] was 7.43 µM (active). Also, the IC50 in assay [2] was 72.4 µM (inactive).
With `CCOc1cc(/C=C(/C#N)c2ccc(F)cc2)ccc1OCc1ccc(C(=O)O)o1`, in assay [8], the IC50 is 23.6 µM (active).
Turning to `Cc1sc2ncnc(N)c2c1C`, the IC50 in assay [1] was > 20 µM (inactive).
Consider `COC(=O)c1c(C)cc(OC)cc1O`, for which the concentration at half-maximal activity (AC50) in [19] was 39.8 µM (inconclusive).
